The text below walks through data of patent US20180243325A1, “METHOD FOR INHIBITING ABSORPTION OF AND/OR PROMOTING EXCRETION OF LIPIDS USING D-PSICOSE” (CJ CHEILJEDANG CORPORATION, priority 2015, published 2018).

The subject of the first assay is FAS (fatty acid synthase, 14101). In words: Hepatic mRNA expression, real-time quantitative PCR: FAS. The assay is classed as in vivo, C57BL/6J mice. The note with it: FIG. 6, liver, HFD+5% w/w in diet, 16 weeks. The method, then: (§1) First, 4-week-old male C57BL/6J mice (60 total) were purchased from Jackson Laboratory. The animals were acclimated to the vivarium in a thermo-hygrostat (20-23° C., 45-65%) under a 12 h light/dark cycle and fed a pelletized commercial non-purified diet for 1 week after arrival. The mice were then randomly divided into 6 groups (n=10) and fed the respective experimental diets for 16 weeks: normal diet group (ND, American Institute of Nutrition (AIN)-76 semi-synthetic diet), high-fat diet group (HFD, 20% fat+1% cholesterol based on AIN-76 diet), PSI group (HFD+5% D-psicose, w/w, Sigma Chemical Company), ERY group (HFD+5% erythritol, w/w, Sigma Chemical Company), GLU group (HFD+5% D-glucose, w/w, Sigma Chemical Company), and FRU group (HFD+5% D-fructose, w/w, Sigma Chemical Company). All high-fat diet-fed groups were allowed to ingest the same calories by pair feeding based on the PSI group. The mice had ad libitum access to distilled water during the experimental period. Their feed intakes and body weights were measured daily and biweekly, respectively. The organ weights and the adipose tissue weights of the mice were measured after sacrificing the animals.
Samples were prepared and analyzed as previously described. Specifically, total RNA was synthesized into cDNA using a QuantiTect Reverse Transcription kit (QIAGEN Gmb1h, Hilden, Germany). RNA expression was quantified with real-time quantitative PCR using a QuantiTect SYBR Green PCR kit (QIAGEN Gmb1h, Hilden, Germany). Primers were designed to detect FAS (fatty acid synthase, 14101), ACC1 (Acetyl-CoA carboxylase 1, 107476), CPT1α (Carnitine palmitoyltransferase 1α, 12894), and CPT2 (Carnitine palmitoyltransferase 2, 12896). GAPDH was used as an internal transcription marker. The reaction was performed a total of 40 cycles (each consisting of 15 sec at 94° C., 30 sec at 58° C., 30 sec at 72° C., and 15 sec at 65° C.). Fluorescence signals were monitored every cycle and the resulting threshold cycles (Ct) were analyzed. mRNA expression in each experimental group was quantified using a CFX96 Real time system (Bio-rad, USA).
Take `OC[C@@H](O)[C@@H](O)CO` [ERY, erythritol]: the “hepatic mRNA expression level of FAS” value is reported as “significantly lower than those in the ND group”.
For the compound `O=C[C@H](O)[C@@H](O)[C@H](O)[C@H](O)CO` [GLU, D-glucose], the “hepatic mRNA expression level of FAS” value is given as “significantly lower than those in the ND group”.
On to `O=C(CO)[C@H](O)[C@H](O)[C@H](O)CO` [PSI, D-psicose], for which the “hepatic mRNA expression level of FAS” value is on record as “much significantly lower than those in the ND group”.
On the same count and under the same terms, the entry for `O=C(CO)[C@@H](O)[C@H](O)[C@H](O)CO` [FRU, D-fructose] is “significantly lower than those in the ND group”.

The subject of a further assay is high-fat diet-induced obese mice. In words: Plasma leptin, resistin, adiponectin levels and L:A ratio. Format: in vivo, C57BL/6J mice. The note with it: FIG. 3, HFD+5% w/w in diet, 16 weeks. The method, then:
as §1, with “animals. Plasma leptin, resistin, and adiponectin levels were measured using Bio-Rad multiplex kits (Hercules, Calif., USA). All samples were assayed in duplicate and analyzed using a Luminex 200 labmap system (Luminex, Austin, Tex., USA). Data analysis was performed using Bio-Plex Manager software version 4.1.1 (Bio-Rad, Hercules, Calif., USA).” for “animals.”
Consider `OC[C@@H](O)[C@@H](O)CO` [ERY, erythritol], for which the “leptin:adiponectin ratio (L:A ratio)” value is on record as “increased significantly compared to those in the ND group”, the plasma leptin level result is “increased significantly compared to those in the ND group” and the plasma resistin level entry is given as “increased significantly compared to those in the ND group”.
`O=C[C@H](O)[C@@H](O)[C@H](O)[C@H](O)CO` [GLU, D-glucose]: the “leptin:adiponectin ratio (L:A ratio)” value is recorded as “increased significantly compared to those in the ND group”, the plasma leptin level entry is reported as “increased significantly compared to those in the ND group” and the plasma resistin level result was “increased significantly compared to those in the ND group”.
As to `O=C(CO)[C@H](O)[C@H](O)[C@H](O)CO` [PSI, D-psicose], the “leptin:adiponectin ratio (L:A ratio)” value was “reduced considerably to levels similar to those in the ND group”, the plasma leptin level result is “reduced considerably to levels similar to those in the ND group” and the plasma resistin level entry is reported as “reduced considerably to levels similar to those in the ND group”.
In the case of `O=C(CO)[C@@H](O)[C@H](O)[C@H](O)CO` [FRU, D-fructose], the “leptin:adiponectin ratio (L:A ratio)” value is reported as “increased significantly compared to those in the ND group”, the plasma leptin level entry is “increased significantly compared to those in the ND group” and the plasma resistin level entry was “increased significantly compared to those in the ND group”.

Another assay shares this test system. Nature of the assay: Hepatic lipid profiles. The assay is classed as in vivo, C57BL/6J mice. The note with it: FIG. 4A, HFD+5% w/w in diet, 16 weeks. The method, then: as §1
Hepatic lipids were extracted from mice in the normal diet group (ND) and high-fat diet groups (HFD, ERY, GLU, FRU, and PSI) and dried. Then, each of the dried hepatic lipid extracts was dissolved in 1 ml of ethanol. 200 μl of the lipid solution was emulsified in a solution of Triton X-100 and sodium cholate in distilled water. Hepatic fatty acid, triglyceride, and cholesterol levels were analyzed using the same enzymatic kits as those used in Example 2.
As for `OC[C@@H](O)[C@@H](O)CO` [ERY, erythritol], the hepatic cholesterol level result was “significantly higher than those in the ND group”, the “hepatic fatty acid level” value is on record as “significantly higher than those in the ND group” and the hepatic triglyceride level result is given as “significantly higher than those in the ND group”.
Regarding `O=C[C@H](O)[C@@H](O)[C@H](O)[C@H](O)CO` [GLU, D-glucose], the hepatic cholesterol level entry is “significantly higher than those in the ND group”, the “hepatic fatty acid level” value was “significantly higher than those in the ND group” and the hepatic triglyceride level result was “significantly higher than those in the ND group”.
Regarding `O=C(CO)[C@H](O)[C@H](O)[C@H](O)CO` [PSI, D-psicose], the hepatic cholesterol level entry is recorded as “decreased significantly compared to those in other high-fat diet groups”, the “hepatic fatty acid level” value was “decreased significantly compared to those in other high-fat diet groups” and the hepatic triglyceride level entry is “decreased significantly compared to those in other high-fat diet groups”.
Consider `O=C(CO)[C@@H](O)[C@H](O)[C@H](O)CO` [FRU, D-fructose], for which the hepatic cholesterol level entry is “significantly higher than those in the ND group”, the “hepatic fatty acid level” value was “significantly higher than those in the ND group” and the hepatic triglyceride level entry is recorded as “significantly higher than those in the ND group”.

Another assay concerns Fatty acid β-oxidation. In words: Fatty acid β-oxidation activity in adipose tissue. The assay is classed as in vivo, C57BL/6J mice. The note with it: FIG. 5A, epididymal white adipose tissue, HFD+5% w/w in diet, 16 weeks. The method, then: as §1, with “animals. Samples were prepared and analyzed according to the method developed by Hulcher and Oleson. Specifically, the activity of fatty acid synthase (FAS) as a lipid regulating enzyme of epididymal white adipose tissue was measured by spectrophotometric assay according to the method described by Nepokroeff et al. Each sample was mixed with 100 μl of cytoplasmic fraction and the mixture was allowed to react at 30° C. for 2 min. A reduction in absorbance at 340 nm was measured. FAS activity units were expressed as nanomoles (nmol) of NADPH oxidized for 1 min per mg of cytoplasmic fraction. Fatty acid β-oxidation activity was measured by monitoring the reduction of NAD^+ to NADH in the presence of palmitoyl-CoA, as described by Lazarow. β-oxidation activity units were expressed as nanomoles (nmol) of NADH produced for 1 min per mg of mitochondrial protein.” for “animals.”
Take `OC[C@@H](O)[C@@H](O)CO` [ERY, erythritol]: the “fatty acid β-oxidation activity in adipose tissue” value (“fatty acid β-oxidation activity” for short) is “decreased significantly compared to those in the ND group”.
Turning to `O=C[C@H](O)[C@@H](O)[C@H](O)[C@H](O)CO` [GLU, D-glucose], the “fatty acid β-oxidation activity” value is recorded as “decreased significantly compared to those in the ND group”.
In the case of `O=C(CO)[C@H](O)[C@H](O)[C@H](O)CO` [PSI, D-psicose], the “fatty acid β-oxidation activity” value is “increased significantly compared to those in other high-fat diet groups”.
As to `O=C(CO)[C@@H](O)[C@H](O)[C@H](O)CO` [FRU, D-fructose], the “fatty acid β-oxidation activity” value is reported as “decreased significantly compared to those in the ND group”.
